Measured values published in patent publication US9890152B2 (Genentech, Inc., priority 2012, dated 2018).

molecular target: T1, EGFR del746-750 T790M (Homo sapiens, UniProt P00533, DEL746-750/T790M); experiment: EGFR del746-750 T790M biochemical assay (Caliper mobility shift); conditions: 5 μM ATP, 30 min, room temperature; apparent Ki (Morrison) converted by Cheng-Prusoff, Km of ATP 2.1 μM; read-out: EGFR(T790M/d746-750) Ki
T1 construct: purchased Carna Biosciences 08-528
T1 sequence (P00533 with tags, fused parts or gaps DEL746-750/T790M limits assumed): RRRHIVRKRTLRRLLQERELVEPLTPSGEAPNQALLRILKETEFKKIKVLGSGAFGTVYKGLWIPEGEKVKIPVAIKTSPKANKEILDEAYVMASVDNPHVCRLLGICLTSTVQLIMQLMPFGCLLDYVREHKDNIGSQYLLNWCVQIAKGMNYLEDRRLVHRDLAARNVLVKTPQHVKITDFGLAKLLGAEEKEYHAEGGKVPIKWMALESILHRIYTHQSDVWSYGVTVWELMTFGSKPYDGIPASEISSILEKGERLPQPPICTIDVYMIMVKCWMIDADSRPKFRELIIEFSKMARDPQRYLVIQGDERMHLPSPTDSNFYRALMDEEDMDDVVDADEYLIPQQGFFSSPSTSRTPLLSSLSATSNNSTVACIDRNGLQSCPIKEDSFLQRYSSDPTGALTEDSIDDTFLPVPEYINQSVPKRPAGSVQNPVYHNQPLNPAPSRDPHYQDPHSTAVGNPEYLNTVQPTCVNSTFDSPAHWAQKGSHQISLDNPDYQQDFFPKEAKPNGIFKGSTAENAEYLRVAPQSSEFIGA

Structure (SMILES)	Ki [nM]
CO[C@H]1CCN(c2nccc(Nc3cc4c(cn3)nc(C)n4C(C)C)n2)C[C@H]1F (racemic) [Example 607, [2-((3RS,4SR)-3-Fluoro-4-methoxypiperidin-1-yl)pyrimidin-4-yl]-(1-isopropyl-2-methyl-1H-imidazo[4,5-c]pyridin-6-yl)amine]	41.1
Cc1nc2cnc(Nc3ccnc(N4CCC(O)C(C)(C)C4)n3)cc2n1C(C)C (stereo not shown) [Example 427, 1-(4-((1-isopropyl-2-methyl-1H-imidazo[4,5-c]pyridin-6-yl)amino)pyrimidin-2-yl)-3,3-dimethylpiperidin-4-ol]	119
CO[C@@H]1CCN(c2nccc(Nc3cc4c(cn3)nc(CO)n4C(C)C)n2)C[C@@H]1Cl (racemic) [Example 634, (6-(2-((±)-(cis)-3-Chloro-4-methoxypiperidin-1-yl)pyrimidin-4-ylamino)-1-isopropyl-1H-imidazo[4,5-c]pyridin-2-yl)methanol]	146
Cc1nc2cnc(Nc3ccnc(-c4cnn(S(=O)(=O)C5CNC5)c4)n3)cc2n1C(C)C [Example 467, N-(2-(1-(azetidin-3-ylsulfonyl)-1H-pyrazol-4-yl)pyrimidin-4-yl)-1-isopropyl-2-methyl-1H-imidazo[4,5-c]pyridin-6-amine]	5.77
CO[C@@]1(C)CCN(c2nccc(Nc3cc4c(cn3)nc(C)n4C(C)C)n2)C[C@H]1F [Example 673]	97.1
CC(C)n1cc(C(=O)N[C@@H]2CCN(C3COC3)C[C@@H]2F)c2cnc(Nc3ccnc(-c4cnn(S(=O)(=O)C5CC5)c4)n3)cc21 (racemic) [Example 372, (±)-6-((2-(1-(cyclopropylsulfonyl)-1H-pyrazol-4-yl)pyrimidin-4-yl)amino)-N-((cis)-3-fluoro-1-(oxetan-3-yl)piperidin-4-yl)-1-isopropyl-1H-pyrrolo[3,2-c]pyridine-3-carboxamide]	1.08
Cc1nc2cnc(Nc3ccnc(N4CCc5cn[nH]c5C4)n3)cc2n1C(C)C [Example 651]	9.14
Cc1cn[nH]c1-c1cn(C(C)C)c2cc(Nc3ccnc(N4CCC(O)C(C)(C)C4)n3)ncc12 (stereo not shown) [Example 347, 1-(4-((1-Isopropyl-3-(4-methyl-1H-pyrazol-5-yl)-1H-pyrrolo[3,2-c]pyridin-6-yl)amino)pyrimidin-2-yl)-3,3-dimethylpiperidin-4-ol]	20.5
CO[C@@H]1CCN(c2nccc(Nc3cc4c(cn3)nc(C)n4C(C)C)n2)C[C@H]1O (racemic) [Example 508, (±)-1-(4-((1-Isopropyl-2-methyl-1H-imidazo[4,5-c]pyridin-6-yl)amino)pyrimidin-2-yl)-4-methoxypiperidin-3-ol]	359
C[C@H](O)c1nc2cnc(Nc3ccnc(N4CC[C@H](O)[C@H](F)C4)n3)cc2n1[C@H](C)C(F)(F)F [Example 690]	387
Cc1nc2cnc(Nc3ccnc(NCC4CCS(=O)(=O)C4)n3)cc2n1C(C)C (stereo not shown) [Example 652]	1160
CC(C)n1c(CO)nc2cnc(Nc3ccnc(N4CCCCC4CO)n3)cc21 (stereo not shown) [Example 670]	273
COC1CCN(c2nccc(Nc3cc4c(cn3)nc([C@@H](C)O)n4[C@H](C)C(F)(F)F)n2)CC1F (mixture of isomers) [Example 297, (R)-1-[6-[2-(cis-3-Fluoro-4-methoxypiperidin-1-yl)pyrimidin-4-ylamino]-1-((R)-2,2,2-trifluoro-1-methylethyl)-1H-imidazo[4,5-c]pyridin-2-yl]ethanol]	40
CC(C)n1cc(C(=O)NC2COC2)c2cnc(Nc3ccnc(-c4cnn(S(=O)(=O)C5CC5)c4)n3)cc21 [Example 386, 6-((2-(1-(cyclopropylsulfonyl)-1H-pyrazol-4-yl)pyrimidin-4-yl)amino)-1-isopropyl-N-(oxetan-3-yl)-1H-pyrrolo[3,2-c]pyridine-3-carboxamide]	1.11
CC(C)n1cnc2cnc(Nc3ccnc(N4CC5CC4CC5F)n3)cc21 (stereo not shown) [Example 191]	54.7
Cc1nc2cnc(Nc3ccnc(N4CCC5(CC4)OCCO5)n3)cc2n1C(C)C [Example 506, N-(2-(1,4-Dioxa-8-azaspiro[4.5]decan-8-yl)pyrimidin-4-yl)-1-isopropyl-2-methyl-1H-imidazo[4,5-c]pyridin-6-amine]	117
Cc1nc2cnc(Nc3ccnc(-c4cnc(N)s4)n3)cc2n1C(C)C [Example 614, [2-(2-Aminothiazol-5-yl)pyrimidin-4-yl]-(1-isopropyl-2-methyl-1H-imidazo[4,5-c]pyridin-6-yl)amine]	3.34
C[C@H](n1c([C@@H](C)O)nc2cnc(Nc3ccnc(N4CC[C@@H](O)[C@@H](F)C4)n3)cc21)C(F)(F)F [Example 291, (3S,4R)-3-Fluoro-1-{4-[2-((R)-1-hydroxyethyl)-1-((S)-2,2,2-trifluoro-1-methylethyl)-1H-imidazo[4,5-c]pyridin-6-ylamino]pyrimidin-2-yl}-piperidin-4-ol]	3.59
CCC(C)n1cc(N2CCCC2=O)c2cnc(Nc3ccnc(N4CC[C@@H](O)[C@@H](F)C4)n3)cc21 (mixture of isomers) [Example 641, 1-(1-(sec-butyl)-6-((2-((3S,4R)-3-fluoro-4-hydroxypiperidin-1-yl)pyrimidin-4-yl)amino)-1H-pyrrolo[3,2-c]pyridin-3-yl)pyrrolidin-2-one]	4.02

Structure (SMILES)	Ki [nM]
C[C@H](n1c([C@@H](C)O)nc2cnc(Nc3ccnc(NCC(C)(C)S(C)(=O)=O)n3)cc21)C(F)(F)F [Example 663]	14.5
Cc1nc2cnc(Nc3ccnc(N4CCC(C)(O)CC4)n3)cc2n1C(C)C [Example 682]	135
CC(C)n1cc(C(=O)NC2COC2)c2cnc(Nc3ccnc(-c4cnn(S(=O)(=O)N5CCCC5)c4)n3)cc21 [Example 388, 1-isopropyl-N-(oxetan-3-yl)-6-((2-(1-(pyrrolidin-1-ylsulfonyl)-1H-pyrazol-4-yl)pyrimidin-4-yl)amino)-1H-pyrrolo[3,2-c]pyridine-3-carboxamide]	29
CC(C)n1c(CO)nc2cnc(Nc3ccnc(N4CCC(S(C)(=O)=O)CC4)n3)cc21 [Example 661]	900
COC1CCN(c2nccc(Nc3cc4c(cn3)c(-c3cnn(CCO)c3)cn4C(C)C)n2)CC1 [Example 402, 2-(4-(1-isopropyl-6-((2-(4-methoxypiperidin-1-yl)pyrimidin-4-yl)amino)-1H-pyrrolo[3,2-c]pyridin-3-yl)-1H-pyrazol-1-yl)ethanol]	0.84
CC(C)n1c(CO)nc2cnc(Nc3ccnc(N4CCC(C)(O)CC4)n3)cc21 [Example 418, 1-(4-((2-(hydroxymethyl)-1-isopropyl-1H-imidazo[4,5-c]pyridin-6-yl)amino)pyrimidin-2-yl)-4-methylpiperidin-4-ol]	169
CO[C@H]1CCN(c2nccc(Nc3cc4c(cn3)nc(CO)n4C(C)C)n2)C[C@H]1C(F)(F)F (racemic) [Example 628, (1-Isopropyl-6-(2-((±)-(cis)-4-methoxy-3-(trifluoromethyl)piperidin-1-yl)pyrimidin-4-ylamino)-1H-imidazo[4,5-c]pyridin-2-yl)methanol]	1190
Cc1cc(-c2cn(C(C)C)c3cc(Nc4ccnc(-c5cnn(S(=O)(=O)C6CC6)c5)n4)ncc23)n(CCO)n1 [Example 436, 2-(5-(6-(2-(1-(cyclopropylsulfonyl)-1H-pyrazol-4-yl)pyrimidin-4-ylamino)-1-isopropyl-1H-pyrrolo[3,2-c]pyridin-3-yl)-3-methyl-1H-pyrazol-1-yl)ethanol]	1.18
CCc1ncc(-c2nccc(Nc3cc4c(cn3)nc(CO)n4C(C)C)n2)s1 [Example 671]	12.6
CCC(C)n1cc(C(=O)NC2CCOCC2)c2cnc(Nc3ccnc(N4CCC(O)C(C)(C)C4)n3)cc21 (mixture of isomers) [Example 384, 1-(sec-butyl)-6-((2-(4-hydroxy-3,3-dimethylpiperidin-1-yl)pyrimidin-4-yl)amino)-N-(tetrahydro-2H-pyran-4-yl)-1H-pyrrolo[3,2-c]pyridine-3-carboxamide]	5.39
COC1CCN(c2nccc(Nc3cc4c(cn3)c(-c3cc[nH]n3)cn4C(C)C)n2)CC1 [Example 64]	1.2
Cc1nc2cnc(Nc3ccnc(-n4cnc(S(C)(=O)=O)c4)n3)cc2n1C(C)C [Example 337, 1-Isopropyl-2-methyl-N-(2-(4-(methylsulfonyl)-1H-imidazol-1-yl)pyrimidin-4-yl)-1H-imidazo[4,5-c]pyridin-6-amine]	524
CCC(C)n1cc(C(=O)NC2CCCOC2)c2cnc(Nc3ccnc(N4CCC(O)C(C)(C)C4)n3)cc21 (stereo not shown) [Example 374, 1-(sec-butyl)-6-((2-(4-hydroxy-3,3-dimethylpiperidin-1-yl)pyrimidin-4-yl)amino)-N-(tetrahydro-2H-pyran-3-yl)-lH-pyrrolo[3,2-c]pyridine-3-carboxamide]	3.31
CCC(C)n1cc(C(=O)NC2CCN(C3COC3)CC2)c2cnc(Nc3ccnc(N4CC[C@@H](OC)[C@@H](F)C4)n3)cc21 (single isomer, unassigned) [Example 326]	3.83
C[C@H](n1c([C@@H](C)O)nc2cnc(Nc3ccnc(N4CCC(C)(O)CC4)n3)cc21)C(F)(F)F [Example 683]	13.2
CO[C@@H]1CCN(c2nccc(Nc3cc4c(cn3)c(C(=O)NC3CCOCC3)cn4C(C)C)n2)C[C@@H]1F [Example 380, 6-((2-((3S,4R)-3-fluoro-4-methoxypiperidin-1-yl)pyrimidin-4-yl)amino)-1-isopropyl-N-(tetrahydro-2H-pyran-4-yl)-1H-pyrrolo [3,2-c]pyridine-3-carboxamide]	6.96
CCC(C)n1cc(C(=O)NC2CCN(C3COC3)CC2)c2cnc(Nc3ccnc(-c4cnn(S(=O)(=O)C5CC5)c4)n3)cc21 (racemic) [Example 371, (±)-1-(sec-butyl)-6-((2-(1-(cyclopropylsulfonyl)-1H-pyrazol-4-yl)pyrimidin-4-yl)amino-N-(1-(oxetan-3-yl)piperidin-4-yl)-1H-pyrrolo[3,2-c]pyridine-3-carboxamide]	1.16
Cc1cn(CCO)nc1-c1cn(C(C)C)c2cc(Nc3ccnc(-c4cnn(S(=O)(=O)C5CC5)c4)n3)ncc12 [Example 253, 2-(3-(6-(2-(1-(Cyclopropylsulfonyl)-1H-pyrazol-4-yl)pyrimidin-4-ylamino)-1-isopropyl-1H-pyrrolo[3,2-c]pyridin-3-yl)-4-methyl-1H-pyrazol-1-yl)ethanol]	1.82
